Experimental data taken from patent US12077503B2, “Substituted cyclic amides and their use as herbicides” (FMC CORPORATION, priority 2015, dated 2024).

Legend:
Assay type in all cases: in vivo
[1] = system: Galium (catchweed bedstraw, Galium aparine); experiment: Test A postemergence; conditions: Galium, post-emergence, 240 h, Postemergence, read-out: Plant response rating, Galium
Outline: (§1)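 Visual injury, scored on a 0–100 scale relative to untreated controls, was recorded about 10 d after application. Treatments were a preemergence soil spray over planted seeds or a postemergence spray on plants at the one- to two-leaf stage, 2 to 10 cm tall, all in loam soil–sand blend in the greenhouse.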

corn (Zea mays) = experiment: Test A postemergence; conditions: Zea mays, post-emergence, 240 h, Postemergence
Outline: as §1

[2] = system: blackgrass (Alopecurus myosuroides); experiment: Test A postemergence; conditions: Alopecurus myosuroides, post-emergence, 240 h, Postemergence, read-out: Plant response rating, Blackgrass
Outline: as §1

Kochia (Kochia scoparia) [3] = experiment: Test A postemergence; conditions: Bassia scoparia, post-emergence, 240 h, Postemergence, read-out: Plant response rating, Kochia
Outline: as §1

[4] = system: giant foxtail (Setaria faberii); experiment: Test A postemergence; conditions: Setaria faberi, post-emergence, 240 h, Postemergence, read-out: Plant response rating, Foxtail, Giant
Outline: as §1

[5] = system: wheat (Triticum aestivum); experiment: Test A postemergence; conditions: Triticum aestivum, post-emergence, 240 h, Postemergence, read-out: Plant response rating, Wheat
Outline: as §1

[6] = system: ragweed (common ragweed, Ambrosia elatior); experiment: Test A postemergence; conditions: Ambrosia artemisiifolia, post-emergence, 240 h, Postemergence, read-out: Plant response rating, Ragweed
Outline: as §1

[7] = system: pigweed (Amaranthus retroflexus); experiment: Test A postemergence; conditions: Amaranthus retroflexus, post-emergence, 240 h, Postemergence, read-out: Plant response rating, Pigweed
Outline: as §1

[8] = system: barnyardgrass (Echinochloa crus-galli); experiment: Test A postemergence; conditions: Echinochloa crus-galli, post-emergence, 240 h, Postemergence, read-out: Plant response rating, Barnyardgrass
Outline: as §1

[9] = system: ryegrass, Italian (Italian ryegrass, Lolium multiflorum); experiment: Test A postemergence; conditions: Lolium multiflorum, post-emergence, 240 h, Postemergence, read-out: Plant response rating, Ryegrass, Italian
Outline: as §1

Kochia (Kochia scoparia) [10] = experiment: Test A preemergence; conditions: Bassia scoparia, pre-emergence, 240 h, Preemergence
Outline: as §1

[11] = system: giant foxtail (Setaria faberii); experiment: Test A preemergence; conditions: Setaria faberi, pre-emergence, 240 h, Preemergence
Outline: as §1

[12] = system: ragweed (common ragweed, Ambrosia elatior); experiment: Test A preemergence; conditions: Ambrosia artemisiifolia, pre-emergence, 240 h, Preemergence
Outline: as §1

[13] = system: pigweed (Amaranthus retroflexus); experiment: Test A preemergence; conditions: Amaranthus retroflexus, pre-emergence, 240 h, Preemergence
[14] = system: barnyardgrass (Echinochloa crus-galli); experiment: Test A preemergence; conditions: Echinochloa crus-galli, pre-emergence, 240 h, Preemergence
Outline: as §1

[15] = system: ryegrass, Italian (Italian ryegrass, Lolium multiflorum); experiment: Test A preemergence; conditions: Lolium multiflorum, pre-emergence, 240 h, Preemergence
Outline: as §1

rice (Oryra sativa) = experiment: Test B flooded paddy test; conditions: Oryza sativa, 250 g ai/ha, Flood; 0 to 100 scale where 0 is no effect and 100 is complete control; read-out: Rice plant response rating
Outline: (§2)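 Visual ratings (0 none to 100 complete control) are relative to untreated plants, taken 13–15 d after treatment in a greenhouse. Test material went straight into floodwater standing 3 cm above the soil, kept constant, on plants at the 2-leaf stage.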

[16] = system: sedge, umbrella (small-flower umbrella sedge, Cyperus difformis); experiment: Test B flooded paddy test; conditions: Cyperus difformis, 250 g ai/ha, Flood; 0 to 100 scale where 0 is no effect and 100 is complete control; read-out: Sedge, Umbrella plant response rating
Outline: as §2

[17] = system: ducksalad (Heteranthera limosa); experiment: Test B flooded paddy test; conditions: Heteranthera limosa, 250 g ai/ha, Flood; 0 to 100 scale where 0 is no effect and 100 is complete control; read-out: Ducksalad plant response rating
Outline: as §2

[18] = system: barnyardgrass (Echinochloa crus-galli); experiment: Test B flooded paddy test; conditions: Echinochloa crus-galli, 250 g ai/ha, Flood; 0 to 100 scale where 0 is no effect and 100 is complete control; read-out: Barnyardgrass plant response rating
Outline: as §2

[19] = 125 g ai/ha, visual injury after approximately 10 d, 0 to 100 scale where 0 is no effect and 100 is complete control
[20] = 31 g ai/ha, visual injury after approx. 10 d, 0 to 100 scale, 0 no effect, 100 complete control

O=C(Nc1cccc(Cl)c1F)[C@H]1C(=O)N(C2CC2)CC[C@@H]1c1ccc(F)cc1 [Compound 1006]
pest or weed control at 125 g/ha [1, 19]: 0%
pest or weed control at 31 g/ha [1, 20]: 0%
Corn plant response rating (crop injury, 0 = no effect, 100 = complete kill) at 125 g/ha (corn (Zea mays); [19]): 10%
Corn plant response rating (crop injury, 0 = no effect, 100 = complete kill) at 31 g/ha (corn (Zea mays); [20]): 0%
pest or weed control at 125 g/ha [2, 19]: 0%
pest or weed control at 31 g/ha [2, 20]: 0%
pest or weed control at 125 g/ha (Kochia (Kochia scoparia) [3]; [19]): 0%
pest or weed control at 31 g/ha (Kochia (Kochia scoparia) [3]; [20]): 0%
pest or weed control at 125 g/ha [4, 19]: 0%
pest or weed control at 31 g/ha [4, 20]: 0%
plant injury at 125 g/ha [5, 19]: 0%
plant injury at 31 g/ha [5, 20]: 0%
pest or weed control at 125 g/ha [6, 19]: 10%
pest or weed control at 31 g/ha [6, 20]: 10%
pest or weed control at 125 g/ha [7, 19]: 0%
pest or weed control at 31 g/ha [7, 20]: 0%
pest or weed control at 125 g/ha [8, 19]: 0%
pest or weed control at 31 g/ha [8, 20]: 0%
pest or weed control at 125 g/ha [9, 19]: 0%
pest or weed control at 31 g/ha [9, 20]: 0%
pest or weed control at 31 g/ha (Kochia (Kochia scoparia) [10]; 31 g ai/ha, 0 to 100 scale where 0 is no effect and 100 is complete control, read-out: Kochia plant response rating): 0%
pest or weed control at 125 g/ha (Kochia (Kochia scoparia) [10]; 125 g ai/ha, visual injury rating after approximately 10 d, read-out: Kochia plant response rating (0 to 100 scale, 0 is no effect, 100 is complete control)): 0%
pest or weed control at 125 g/ha ([11]; 125 g ai/ha, visual injury rating after approximately 10 d, read-out: Foxtail, Giant plant response rating (0 to 100 scale, 0 is no effect, 100 is complete control)): 0%
pest or weed control at 31 g/ha ([11]; 31 g ai/ha, 0 to 100 scale (0 no effect, 100 complete control), read-out: Plant response rating, Foxtail, Giant): 0%
pest or weed control at 31 g/ha ([12]; 31 g ai/ha, 0 to 100 scale where 0 is no effect and 100 is complete control, read-out: Ragweed plant response rating): 0%
pest or weed control at 125 g/ha ([12]; 125 g ai/ha, visual injury rating after approximately 10 d, read-out: Ragweed plant response rating (0 to 100 scale, 0 is no effect, 100 is complete control)): 0%
pest or weed control at 31 g/ha ([13]; 31 g ai/ha, 0 to 100 scale where 0 is no effect and 100 is complete control, read-out: Pigweed plant response rating): 0%
pest or weed control at 125 g/ha ([13]; 125 g ai/ha, visual injury rating after approximately 10 d, read-out: Pigweed plant response rating (0 to 100 scale, 0 is no effect, 100 is complete control)): 0%
pest or weed control at 125 g/ha ([14]; 125 g ai/ha, visual injury rating after approximately 10 d, read-out: Barnyardgrass plant response rating (0 to 100 scale, 0 is no effect, 100 is complete control)): 0%
pest or weed control at 31 g/ha ([14]; 31 g ai/ha, 0 to 100 scale (0 no effect, 100 complete control), read-out: Plant response rating, Barnyardgrass): 0%
pest or weed control at 31 g/ha ([15]; 31 g ai/ha, 0 to 100 scale where 0 is no effect and 100 is complete control, read-out: Ryegrass, Italian plant response rating): 0%
pest or weed control at 125 g/ha ([15]; 125 g ai/ha, visual injury rating after approximately 10 d, read-out: Ryegrass, Italian plant response rating (0 to 100 scale, 0 is no effect, 100 is complete control)): 0%
pest or weed control at 250 g/ha (rice (Oryra sativa)): 0%
pest or weed control at 250 g/ha [16]: 0%
pest or weed control at 250 g/ha [17]: 0%
pest or weed control at 250 g/ha [18]: 0%
